Experimental data from patent publication US5143911A, “Antibiotic C-3 di-hydroxyphenyl substituted cephalosporin compounds, compositions and method of use thereof” (Bristol-Myers Squibb Company, priority 1990, dated 1992).
≈ marks a conversion by molar mass, not a printed value. Like-named read-outs stand apart in the source and are kept apart here.

Tests used:
[1] = test system: Cephalothin (CET)sensitive E. coli(2), Kl. pneumoniae(1) and Pr. mirabilis(2); test: MIC, two-fold serial agar dilution, Mueller-Hinton agar (geometric mean, group Gn-Ia); assay type: cell-based; settings: 5 strains
Experimental: (§1) For a primary evaluation of some representative compounds of this invention, minimum inhibitory concentrations (MIC's) were determined against 32 strains of test organisms by two-fold serial agar dilution method in Mueller-Hinton agar.
GnIa: Cephalothin (CET)sensitive E. coli(2)*, Kl. pneumoniae(1) and Pr.

Ps. aeruginosa (7) = test: MIC, two-fold serial agar dilution, Mueller-Hinton agar (geometric mean, group Gn-III); assay type: cell-based; settings: Pseudomonas aeruginosa, 7 strains
Experimental: as §1
GnIII: Ps. aeruginosa (7)

S. epidermidis 11-1168 = assay type: cell-based; settings: Staphylococcus epidermidis, 111168, pH 7.2, 32° C. 18 hr, 10^6 cells/ml
E. faecium A24817 = assay type: cell-based; settings: Enterococcus faecium, pH 7.2, 32° C. 18 hr, 10^6 cells/ml
P. aeruginosa A20599 = assay type: cell-based; settings: Pseudomonas aeruginosa, pH 7.2, 32° C. 18 hr, 10^6 cells/ml
P. cepacia A21213 = assay type: cell-based; settings: Burkholderia cepacia, pH 7.2, 32° C. 18 hr, 10^6 cells/ml
B. fragilis A 22693 = test: In vitro activity against anaerobes (MIC), two-fold serial agar dilution, GAM agar; assay type: cell-based; settings: Bacteroides fragilis, A22693, Gn, Beta-Lactamase(-)
B. fragilis A 22021 = test: as above; assay type: cell-based; settings: Bacteroides fragilis, A22021, Gn, Beta-Lactamase(-)
B. fragilis A 21916 = test: as above; assay type: cell-based; settings: Bacteroides fragilis, A21916, Gn, Beta-Lactamase(-)
B. fragilis A 22534 = test: as above; assay type: cell-based; settings: Bacteroides fragilis, A22534, Gn, Beta-Lactamase(+)
B. fragilis CUH-108 = test: as above; assay type: cell-based; settings: Bacteroides fragilis, CUH108, Gn, Beta-Lactamase(+), Clindamycin-resistant
Experimental: In vitro activity against anaerobic bacteria was determined on eight strains of B. fragilis by two-fold serial agar dilution method in GAM agar.

C. difficile A 21675 = test: In vitro activity against anaerobes (MIC); assay type: cell-based; settings: Clostridioides difficile, A21675, Gp, Clindamycin-resistant
C. perfringens A9635 = test: microbe, parasite or virus in culture; assay type: cell-based; settings: Clostridium perfringens
S. aureus Smith [2] = test: MIC against the infecting organism (Table 2); settings: Staphylococcus aureus
P. aeruginosa 9843A = test: MIC against the infecting organism (Table 2); settings: Pseudomonas aeruginosa
S. aureus 209P = settings: Staphylococcus aureus, 18 h, pH 7.2
S. aureus Smith [3] = settings: Staphylococcus aureus, 18 h, pH 7.2
S. epidermidis 11-1230 = settings: Staphylococcus epidermidis, 111230, 18 h, pH 7.2
E. faecalis A9808 = settings: Enterococcus faecalis, A9808, 18 h, pH 7.2
M. luteus 1001 = settings: Micrococcus luteus, 1001, 18 h, pH 7.2
B. subtilis PCI 219 = settings: Bacillus subtilis, PCI219, 18 h, pH 7.2
E. coli Juhl A15119 = settings: Escherichia coli, JUHLA15119, 18 h, pH 7.2
M. morgani 1510/9 = settings: 18 h, pH 7.2
P. rettgeri IPM-14 = settings: Providencia rettgeri, IPM14, 18 h, pH 7.2
E. cloacae IPM-12 = settings: Enterobacter cloacae, IPM12, 18 h, pH 7.2
S. marcescens IPM-15 = settings: Serratia marcescens, IPM15, 18 h, pH 7.2
C. freundii GN 7391 = settings: Citrobacter freundii, GN7391, 18 h, pH 7.2
P. aeruginosa KKA 19 = settings: Pseudomonas aeruginosa, KKA19, 18 h, pH 7.2
P. aeruginosa IPM-8 = settings: Pseudomonas aeruginosa, IPM8, 18 h, pH 7.2
P. aeruginosa IPM-9 = settings: Pseudomonas aeruginosa, IPM9, 18 h, pH 7.2
X. maltophilia GN 12873 = settings: Stenotrophomonas maltophilia, GN12873, 18 h, pH 7.2
X. maltophilia No. 661 = settings: Stenotrophomonas maltophilia, NO.661, 18 h, pH 7.2

## CO/N=C(\C(=O)NC1C(=O)N2C(C(=O)O)=C(/C=C/COC(=O)c3ccc(O)c(O)c3)CS[C@H]12)c1csc(N)n1 (some centres unmarked) [Ia, 7-[(Z)-2-(2-Aminothiazol-4-yl)-2-methoxyiminoacetamido]-3-[(E)-3-(3,4-dihydroxybenzoyloxy)-1-propen-1-yl]-3-cephem-4-carboxylic acid]
[1]
  MIC: 0.017 µg/mL (≈ 0.0295 µM)
Ps. aeruginosa (7)
  MIC: 1.9 µg/mL (≈ 3.3 µM)
S. epidermidis 11-1168
  MIC: 3.1 µg/mL (≈ 5.39 µM)
E. faecium A24817
  MIC: > 100 µg/mL
P. aeruginosa A20599
  MIC: 3.1 µg/mL (≈ 5.39 µM)
P. cepacia A21213
  MIC: > 100 µg/mL
B. fragilis A 22693
  MIC: 0.8 µg/mL (≈ 1.39 µM)
B. fragilis A 22021
  MIC: 0.2 µg/mL (≈ 0.347 µM)
B. fragilis A 21916
  MIC: 1.6 µg/mL (≈ 2.78 µM)
B. fragilis A 22534
  MIC: > 50 µg/mL
B. fragilis CUH-108
  MIC: 25 µg/mL (≈ 43.4 µM)
C. difficile A 21675
  MIC: 12.5 µg/mL (≈ 21.7 µM)
C. perfringens A9635
  MIC: 0.2 µg/mL (≈ 0.347 µM)
S. aureus Smith [2]
  MIC: 1.6 µg/mL (≈ 2.78 µM)
P. aeruginosa 9843A
  MIC: 3.1 µg/mL (≈ 5.39 µM)
S. aureus 209P
  MIC: 3.1 µg/mL (≈ 5.39 µM)
S. aureus Smith [3]
  MIC: 1.6 µg/mL (≈ 2.78 µM)
S. epidermidis 11-1230
  MIC: 3.1 µg/mL (≈ 5.39 µM)
E. faecalis A9808
  MIC: 100 µg/mL (≈ 174 µM)
M. luteus 1001
  MIC: 0.1 µg/mL (≈ 0.174 µM)
B. subtilis PCI 219
  MIC: 0.2 µg/mL (≈ 0.347 µM)
E. coli Juhl A15119
  MIC: 0.05 µg/mL (≈ 0.0869 µM)
M. morgani 1510/9
  MIC: 0.05 µg/mL (≈ 0.0869 µM)
P. rettgeri IPM-14
  MIC: 0.05 µg/mL (≈ 0.0869 µM)
E. cloacae IPM-12
  MIC: > 100 µg/mL
S. marcescens IPM-15
  MIC: > 100 µg/mL
C. freundii GN 7391
  MIC: 12.5 µg/mL (≈ 21.7 µM)
P. aeruginosa KKA 19
  MIC: 50 µg/mL (≈ 86.9 µM)
P. aeruginosa IPM-8
  MIC: 6.3 µg/mL (≈ 10.9 µM)
P. aeruginosa IPM-9
  MIC: 6.3 µg/mL (≈ 10.9 µM)
X. maltophilia GN 12873
  MIC: 50 µg/mL (≈ 86.9 µM)
X. maltophilia No. 661
  MIC: 12.5 µg/mL (≈ 21.7 µM)
